Test results: PubChem BioAssay (NCI)
Values joined by “and” are separate entries in the source; they are usually repeats but may differ in a detail not shown here. Equal entries are not always repeated.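 Exposure lasted 48 hours, with cells grown in 96-well plates and compounds tested at five concentrations. GI50 = concentration required for 50% inhibition of growth. Definition used: TGI = concentration required for complete inhibition of growth.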

Experiments:
Experiment in all cases: inhibition of tumour cell growth, NCI panel, 48 h
MCF7 breast = test system: MCF7 breast
NCI-H23 lung = test system: NCI-H23 lung
HT29 colon = test system: HT29 colon
HOP-92 NSCLC = test system: HOP-92 NSCLC
SNB-19 CNS = test system: SNB-19 CNS
SK-OV-3 ovarian = test system: SK-OV-3 ovarian
MALME-3M melanoma = test system: MALME-3M melanoma
SK-MEL-5 melanoma = test system: SK-MEL-5 melanoma
786-0 renal = test system: 786-0 renal
HCC-2998 colon = test system: HCC-2998 colon

| Compound | TGI (MCF7 breast) [µM] | TGI (NCI-H23 lung) [µM] | TGI (HT29 colon) [µM] | TGI (HOP-92 NSCLC) [µM] | TGI (SNB-19 CNS) [µM] | TGI (SK-OV-3 ovarian) [µM] | TGI (MALME-3M melanoma) | TGI (SK-MEL-5 melanoma) | TGI (786-0 renal) [µM] | TGI (HCC-2998 colon) | GI50 (MCF7 breast) [µM] | GI50 (SNB-19 CNS) | GI50 (NCI-H23 lung) [µM] | GI50 (HT29 colon) [µM] | GI50 (SK-OV-3 ovarian) | GI50 (SK-MEL-5 melanoma) [µM] | GI50 (HCC-2998 colon) | GI50 (HOP-92 NSCLC) [µM] | GI50 (MALME-3M melanoma) [µM] |
| --- | --- | --- | --- | --- | --- | --- | --- | --- | --- | --- | --- | --- | --- | --- | --- | --- | --- | --- | --- |
| Cc1ccc2c3c1[C@@H]1O[C@@H]1c1cccc(c1-3)[C@@H]1O[C@H]21 | 34.8 | 31.8 | 23.4 | 36.8 | 49.9 | 63.9 | 31 µM | 30.6 µM |  |  |  |  |  |  |  |  |  |  |  |
| O=c1[nH]c2cc([N+](=O)[O-])c(N/N=C/c3ccc(Cl)cc3Cl)c([N+](=O)[O-])c2[nH]1 | > 100 | > 100 | > 100 | > 100 | > 100 | 77.5 | > 100 µM | > 100 µM | > 100 |  |  |  |  |  |  |  |  |  |  |
| O=c1[nH]c(=O)n(CCOc2ccc(Cl)cc2)cc1Nc1ccccc1 | > 100 | > 100 | > 100 | > 100 | > 100 |  |  | > 100 µM | > 100 | > 100 µM |  |  |  |  |  |  |  |  |  |
| C=C1CC2C3C=C(C)C4=CC(=O)CC[C@]4(C)C3CC[C@]2(C)[C@@]1(OC(C)=O)C(C)=O (stereo partly specified) | > 100 |  |  |  | > 100 |  |  |  |  |  | 4.16 | > 100 µM |  |  |  |  |  |  |  |
| COc1ccc(N=Cc2ccc(N(CCC#N)S(=O)(=O)c3ccccc3)cc2C)cc1 |  | > 100 | > 100 | > 100 | > 100 | > 100 | 93.7 µM | > 100 µM |  | > 100 µM |  |  |  |  |  |  |  |  |  |
| NC(=O)CCSC(CC(=O)c1ccc(Cl)cc1)c1ccc(Cl)cc1 (stereo unspecified) | 47.4 | > 100 | > 100 | 45.5 | > 100 | > 100 | 66.8 µM | 42.9 µM | > 100 | 32.7 µM |  |  |  |  |  |  |  |  |  |
| CCOC(=O)C12CC(C)=C(C)CC1CCCc1ccccc12 (stereo unspecified) | 35.2 | > 100 | 36.5 | 38.8 | 83 | > 100 | 53.5 µM | 37.5 µM | > 100 | 28.1 µM |  |  |  |  |  |  |  |  |  |
| O=CN1CCC23CC(O)CCC2C1Cc1cc(Oc2nnnn2-c2ccccc2)cc(O)c13 (stereo unspecified) | > 100 | > 100 | > 100 | > 100 | > 100 | > 100 | > 100 µM | > 100 µM | > 100 | > 100 µM |  |  |  |  |  |  |  |  |  |
| C[C@H]1CCC/C=C/[C@@H]2C[C@H](O)C[C@H]2[C@H](O)/C=C/C(=O)O1 |  |  |  |  | > 100 |  | 0.0745 µM and 0.0253 µM and 0.0382 µM | < 0.01 µM and 0.0127 µM and 0.0164 µM |  | 0.674 µM and 0.322 µM | 0.0417 | 0.0308 µM and 0.134 µM and 0.215 µM | 0.0531 | 0.0224 | 0.0361 µM and 0.0334 µM | < 0.0122 | 0.0623 µM and 0.054 µM |  |  |
| CCC1CCC2c3c([nH]c4ccc(C)cc34)C3C(=O)N(N(C)C)C(=O)C3C2C1 (stereo unspecified) | > 100 | > 100 | > 100 | > 100 | > 100 | > 100 | 39.2 µM | > 100 µM | > 60.1 | > 100 µM |  |  |  |  |  |  |  |  |  |
| CCOC(=O)/C(=C\NC(C)(C)CO)c1nc2ccccc2[nH]1 | > 100 | > 100 | > 100 | > 100 | > 100 | > 100 | > 100 µM | > 100 µM | > 100 | > 100 µM |  |  |  |  |  |  |  |  |  |
| CCCC[C@H]1C(=O)O[C@H](C)[C@H](NC(=O)c2cccc(NC=O)c2OC)C(=O)O[C@@H](C)[C@@H]1OC(=O)CC(C)C (tested in a mixture with another compound) | 28.1 | 26.5 | 33.1 | 27.2 | 22.3 | 30.1 | 46.5 µM | 27.7 µM | 29.3 | 80.6 µM |  |  |  |  |  |  |  |  |  |
| O=c1[nH]c(=O)n(CCOCP(=O)(O)O)nc1Br | > 100 | > 100 | > 100 | > 100 | > 100 |  | > 100 µM | > 100 µM |  | > 100 µM |  |  |  |  |  |  |  |  |  |
| N=C(N)c1ccc(N=Nc2c(O)ccc3cc4c(N=Nc5ccc(C(=N)N)cc5)c(O)ccc4cc23)cc1 | > 100 |  | > 100 | > 100 | > 100 | > 100 | > 100 µM | > 100 µM | > 100 | > 100 µM |  |  |  |  |  |  |  |  |  |
| C/C(=C\C(=N\NC(=N)N)c1ccccc1)c1ccccc1 | 1.58 | 4.01 | 3.44 | 3.22 | 3.49 | 15.7 | 3.5 µM | 0.76 µM | 11.3 | 1.86 µM |  |  |  |  |  |  |  |  |  |
| Cc1cn(Cc2cn(CC3OC(n4cc(C)c(=O)[nH]c4=O)CC3O)nn2)c(=O)[nH]c1=O (stereo unspecified) | > 100 | > 100 |  |  | > 100 | > 100 | > 100 µM | > 100 µM |  | > 100 µM |  |  |  |  |  |  |  |  |  |
| COc1cccc(NC(=O)CC(=O)NN2C(=O)/C(=C/c3ccc(N(CCC#N)CCC#N)cc3)N=C2c2cc([N+](=O)[O-])ccc2Cl)c1 |  | > 100 |  | > 100 | > 100 | > 100 | > 100 µM | > 100 µM |  | > 100 µM |  |  |  |  |  |  |  |  |  |
| C=C1c2nc3ccccc3n2C=C(c2ccc(Cl)cc2)N1c1ccc(OCCN2CCCCC2)cc1 | > 100 | > 100 | > 100 | > 100 | > 100 | > 100 | 45 µM and > 100 µM | > 45 µM | > 45 | > 100 µM | > 100 | 4.53 µM | > 100 | > 100 | > 100 µM |  |  | > 100 | 0.415 |
| N#Cc1c(-c2ccc(Cl)cc2)c2c([nH]c1=O)-c1cc([N+](=O)[O-])ccc1CCC2 | 83 | 36.2 | 75.5 | 38.5 | 56.8 | > 100 | > 100 µM | 40.7 µM | 79.9 | 35.7 µM |  |  |  |  |  |  |  |  |  |
| O=C1[C@@H](O)[C@@H]2CCCC[C@@]23CCCN13 | > 100 | > 100 | > 100 | > 100 | > 100 | > 100 | > 100 µM | > 100 µM | > 100 | > 100 µM |  |  |  |  |  |  |  |  |  |
